Test results reported in ChEMBL document CHEMBL1201862, “PubChem BioAssay data set” (2004).
Activity calls are given as the source filed them.

Key:
[1] = P. falciparum Dd2 growth inhibitors, dose response, SYBR Green, cherry-picked samples (AID 1159567); assay type: functional, cell-based
[2] = toxicity to human hepatoma HepG2 cells – cell-based, cherry-picked samples, cytotoxicity control, dose response (AID 1159577); assay type: functional
[3] = biological target: T1, RNA-binding protein pos-1 (Caenorhabditis elegans, UniProt G5EF15); test: disruptors of C. elegans POS-1 RNA interaction – biochemical, fluorescence polarization, dose response (AID 1964);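 note: purified POS-1 fused to maltose binding protein made in E. coli; potency of compounds blocking POS-1 binding to fluorescent RNA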
T1 sequence (G5EF15 whole entry): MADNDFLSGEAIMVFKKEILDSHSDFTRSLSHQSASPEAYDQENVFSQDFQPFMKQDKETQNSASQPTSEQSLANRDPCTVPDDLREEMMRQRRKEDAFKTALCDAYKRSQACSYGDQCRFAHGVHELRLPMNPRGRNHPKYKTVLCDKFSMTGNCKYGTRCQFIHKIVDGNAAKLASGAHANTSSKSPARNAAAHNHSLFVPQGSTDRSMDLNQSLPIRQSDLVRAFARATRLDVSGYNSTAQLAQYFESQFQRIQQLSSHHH

[4] = biological target: T2, Zinc finger protein mex-5 (Caenorhabditis elegans, UniProt Q9XUB2); test: potency of MEX-5 RNA-binding blockers – biochemical, C. elegans, fluorescence polarization, dose response (AID 1960)
T2 sequence (Q9XUB2 whole entry): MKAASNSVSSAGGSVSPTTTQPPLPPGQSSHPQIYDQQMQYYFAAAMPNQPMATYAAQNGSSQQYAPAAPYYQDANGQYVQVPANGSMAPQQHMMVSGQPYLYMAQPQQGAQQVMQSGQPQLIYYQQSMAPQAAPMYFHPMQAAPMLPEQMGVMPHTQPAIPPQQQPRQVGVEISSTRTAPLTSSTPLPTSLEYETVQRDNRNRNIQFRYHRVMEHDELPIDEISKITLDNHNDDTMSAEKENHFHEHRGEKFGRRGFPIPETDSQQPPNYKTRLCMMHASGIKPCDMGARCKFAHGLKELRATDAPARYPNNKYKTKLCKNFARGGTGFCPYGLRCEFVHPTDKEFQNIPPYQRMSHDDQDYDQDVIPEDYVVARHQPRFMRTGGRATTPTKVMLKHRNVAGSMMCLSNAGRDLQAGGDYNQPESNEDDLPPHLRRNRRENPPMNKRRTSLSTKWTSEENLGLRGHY

[5] = biological target: Transthyretin (Homo sapiens, UniProt P02766); test: Luminescence-based cell-based high throughput dose response assay to identify activators of Transthyretin (TTR) transcription.; assay type: functional
[6] = biological target: Ephrin type-A receptor 4 (Mus musculus, UniProt Q03137); test: EphA4 ligand-binding antagonists – biochemical, colorimetric, mouse EphA4, primary screen (AID 689); assay type: functional
[7] = biological target: RNA-editing ligase 1, mitochondrial (Trypanosoma brucei brucei, UniProt P86926); test: inhibition of trypanosome RNA editing ligase – biochemical, fluorescence, Trypanosoma brucei, dose response (AID 1117295); assay type: functional
[8] = growth inhibition of yeast DHODH-expressing 3D7 parasites – SYBR Green, dry powder samples, dose response (AID 1159570); assay type: functional, cell-based;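 note: parasite growth measured after 72 hours of compound exposure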
[9] = toxicity to human HepG2 hepatoma cells – cell-based, plate reader, dry powder samples, cytotoxicity control, dose response (AID 1159569); assay type: functional;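 note: inhibitor potency with signal falling toward the positive control level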
[10] = Dd2 malaria parasite growth inhibition potency – SYBR Green, dry powder samples, dose response (AID 1159566); assay type: functional, cell-based;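 note: potency for growth inhibition with lower SYBR green DNA signal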
[11] = growth inhibition of PfATP4-mutant resistant parasites – NITD609-resistant line, SYBR Green, dry powder, dose response (AID 1159571); assay type: functional, cell-based;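 note: parasites synchronized at ring stage by sorbitol before testing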
[12] = biological target: T3, Estrogen receptor beta (Homo sapiens, UniProt Q92731);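 note: recombinant ER-beta bound to coactivator SRC1 peptide in presence of estradiol agonist; inhibitors block coactivator peptide binding and lower the FRET signal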
[13] = biological target: T3, Estrogen receptor beta; test: blockers of SRC-3 recruitment to ERβ – biochemical, ELISA, streptavidin-HRP readout, orthogonal assay, confirmation (AID 1060)

T3 sequence (Q92731 whole entry): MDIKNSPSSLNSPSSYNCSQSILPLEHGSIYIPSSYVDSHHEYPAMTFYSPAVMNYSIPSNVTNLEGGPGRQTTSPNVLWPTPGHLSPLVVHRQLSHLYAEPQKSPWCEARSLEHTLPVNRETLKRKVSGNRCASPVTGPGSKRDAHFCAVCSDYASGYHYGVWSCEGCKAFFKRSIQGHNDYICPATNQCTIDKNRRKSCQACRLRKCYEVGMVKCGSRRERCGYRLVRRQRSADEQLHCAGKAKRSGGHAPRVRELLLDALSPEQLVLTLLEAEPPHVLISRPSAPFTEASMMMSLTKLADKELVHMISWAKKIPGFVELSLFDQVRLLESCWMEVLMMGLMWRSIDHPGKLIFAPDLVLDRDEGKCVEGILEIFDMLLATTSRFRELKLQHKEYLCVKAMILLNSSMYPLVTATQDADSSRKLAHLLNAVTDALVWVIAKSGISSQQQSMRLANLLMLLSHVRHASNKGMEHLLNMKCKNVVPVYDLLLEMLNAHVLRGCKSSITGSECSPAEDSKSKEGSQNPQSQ
Sequence of Ephrin type-A receptor 4 (Q03137 whole entry): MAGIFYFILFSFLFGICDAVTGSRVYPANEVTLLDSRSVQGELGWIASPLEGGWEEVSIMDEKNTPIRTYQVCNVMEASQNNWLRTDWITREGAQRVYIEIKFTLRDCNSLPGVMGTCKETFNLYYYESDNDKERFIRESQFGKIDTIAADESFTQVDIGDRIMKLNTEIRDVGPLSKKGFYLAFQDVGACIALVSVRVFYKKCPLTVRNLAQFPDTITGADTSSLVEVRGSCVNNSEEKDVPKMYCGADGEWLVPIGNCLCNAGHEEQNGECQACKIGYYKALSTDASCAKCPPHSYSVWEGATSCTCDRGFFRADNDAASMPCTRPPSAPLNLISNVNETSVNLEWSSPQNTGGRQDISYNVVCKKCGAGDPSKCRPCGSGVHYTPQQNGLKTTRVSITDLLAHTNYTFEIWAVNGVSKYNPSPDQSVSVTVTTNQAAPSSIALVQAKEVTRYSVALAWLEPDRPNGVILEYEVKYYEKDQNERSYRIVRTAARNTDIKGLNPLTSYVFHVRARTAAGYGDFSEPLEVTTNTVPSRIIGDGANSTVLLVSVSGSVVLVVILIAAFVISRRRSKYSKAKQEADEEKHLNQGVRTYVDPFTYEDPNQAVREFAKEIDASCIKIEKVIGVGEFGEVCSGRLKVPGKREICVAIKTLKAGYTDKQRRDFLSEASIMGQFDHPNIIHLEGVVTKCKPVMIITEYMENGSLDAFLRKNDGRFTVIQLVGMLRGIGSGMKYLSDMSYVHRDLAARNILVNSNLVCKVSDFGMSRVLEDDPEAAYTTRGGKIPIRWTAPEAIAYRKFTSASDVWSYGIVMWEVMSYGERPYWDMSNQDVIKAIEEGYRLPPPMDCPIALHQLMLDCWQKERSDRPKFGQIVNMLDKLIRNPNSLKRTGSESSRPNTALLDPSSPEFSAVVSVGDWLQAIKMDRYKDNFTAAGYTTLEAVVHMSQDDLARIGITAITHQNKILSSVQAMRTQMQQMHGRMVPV
Sequence of RNA-editing ligase 1, mitochondrial (P86926 whole entry): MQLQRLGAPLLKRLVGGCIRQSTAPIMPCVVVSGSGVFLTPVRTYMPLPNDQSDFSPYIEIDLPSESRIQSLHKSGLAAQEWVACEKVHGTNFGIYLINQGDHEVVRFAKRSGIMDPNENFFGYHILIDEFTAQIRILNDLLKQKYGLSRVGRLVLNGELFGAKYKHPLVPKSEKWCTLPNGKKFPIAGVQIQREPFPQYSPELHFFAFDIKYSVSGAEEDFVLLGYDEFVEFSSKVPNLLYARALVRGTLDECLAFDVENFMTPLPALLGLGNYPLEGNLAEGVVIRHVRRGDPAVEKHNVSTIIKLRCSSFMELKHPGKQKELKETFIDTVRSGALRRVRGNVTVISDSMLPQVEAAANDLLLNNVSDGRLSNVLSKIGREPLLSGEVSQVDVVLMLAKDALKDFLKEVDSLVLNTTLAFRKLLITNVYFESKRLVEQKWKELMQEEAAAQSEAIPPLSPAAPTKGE

COc1ccc(S(=O)(=O)N2CCCCN3[C@@H](CO)[C@@H](c4ccc(C5=CCCCC5)cc4)[C@@H]3C2)cc1
AC50 [1]: 0.972 µM (active)
AC50 [2]: 10.2 µM (active)

CCCCN1C(=O)NC(=O)/C(=C(O)\C=C\c2ccc3c(c2)OCO3)C1=O
EC50 [3]: 11.5 µM (active)
EC50 [4]: 9.12 µM (inconclusive)
EC50 [5]: > 167 µM (inactive)

Cc1c(NC(=S)N/N=C/c2cccc(O)c2)c(=O)n(-c2ccccc2)n1C
IC50 [6]: 39.5 µM (active)

O=[N+]([O-])c1ccc(N2N=C(c3ccco3)CC2c2ccccc2)cc1 (stereo unspecified)
IC50 [6]: > 100 µM (not active)

COC(=O)C1=C(C)N(Cc2ccccc2C(F)(F)F)C(NCc2ccccc2)=NC1CCc1ccccc1 (stereo unspecified)
IC50 [7]: > 96.6 µM (inactive)

COc1ccccc1S(=O)(=O)N(C)C[C@@H]1OCc2ccccc2-c2c(n(C)c3ccccc23)C(=O)N([C@H](C)CO)C[C@@H]1C
AC50 [8]: 0.561 µM (active)
AC50 [9]: 89.2 µM (active)
AC50 [1]: 0.729 µM (active)
AC50 [10]: 0.423 µM (active)
AC50 [2]: 36.7 µM (active)
AC50 [11]: 0.548 µM (active)

COc1ccc(C2CC(=O)Nc3ccccc3S2(=O)=O)cc1OC (stereo unspecified)
IC50 [12]: 16.1 µM (active)
IC50 [13]: < 0.023 µM (not active)
